Laboratory results as given in patent US5414144A, “Propylene glycol cyclohexyl ether derivatives, method of producing same and uses thereof” (Asahi Kasei Kogyo Kabushiki Kaisha, priority 1993, dated 1995).
Read-outs that look alike come from different tables or passages of the source.

Key:
[1] = Flash point (JIS-K2265); type: physicochemical
[2] = for Solubility (In water) / Solubility (Water in): 20° C.; for Solubility (In water): solubility of the sample compound in water; for Solubility (In water) / solubility in water: 30 min; for Solubility (Water in): solubility of water in the sample compound; for solubility in water: Table 2
Procedure: (3) Solubility ("water in" and "in water")
10 g of a sample compound (liquid) was mixed with 10 g of water and then allowed to stand still for 30 minutes, so that the mixture was permitted to separate into a sample compound layer and an aqueous layer. Then, the water content of the sample compound layer was measured using a Karl Fischer moisture meter manufactured by Kyoto Electronics Co., Ltd., Japan, and the obtained value was taken as a solubility of water in the sample compound. The content of the sample compound in the aqueous layer was measured using GC and the obtained value was taken as a solubility of the sample compound in water.

[3] = type: physicochemical
Procedure: The boiling point was determined from the temperature and pressure of the vapor at the top of the distillation column.

[4] = Oil solubility characteristics; type: physicochemical; settings: 100 g sample compound
Procedure: (§1) 10 g of a sample compound and 10 g of a glycol ether-type detergent (Elease M-9000, manufactured by Asahi Kasei Kogyo K.K., Japan) were individually placed in an oven and heated at 50° C. for 20 minutes. Then, a measurement was done with respect to the decrease in the weight of the sample compound as well as the decrease in the weight of Elease M-9000. The relative drying rate was calculated according to the following formula: [formula] (11) Oil Solubility Characteristics
Each of the oils mentioned below was individually added to 100 g of a sample compound while stirring until a saturation of the sample compound with the oil was reached. The solubility (%) was expressed in terms of the percent expression of the weight of the oil dissolved in 100 g of the sample compound, with the dissolution of 100 g of the oil being taken as 100%. For example, when the amount of the oil dissolved was n g, the solubility was expressed as n %. The above-mentioned oils were: a mineral oil (Smoil PS-260, manufactured by Matsumura Sekiyu Kenkyusho, Japan), a drawing oil (Daphne Masterdraw 533WD, manufactured by Idemitsu Kosan Co., Ltd., Japan), a press oil (Uni Press DP-120, manufactured by Nippon Sekiyu Co., Ltd., Japan) and a rosin oil (sold by Kishida Kagaku Co., Ltd., Japan).

[5] = background, result in words; cited from earlier work
[6] = Viscosity; type: physicochemical; settings: 25° C.
Procedure: The viscosity was measured at 25° C. using a digital viscometer (Model DVL-B, manufactured by Toki Sangyo Co., Ltd., Japan).

[7] = Relative drying rate; type: physicochemical; settings: 50° C., 20 minutes; relative to Elease M-9000
Procedure: (10) Relative Drying Rate
as §1

[8] = Separability from water; type: physicochemical; settings: result in words
Procedure: (6) Separability from Water
An equivolume mixture of a sample compound and water was vigorously shaken and then allowed to stand. After a period of 5 minutes, the degree of separation of the sample compound from water was judged by the naked eye.

[9] = Overall comparison of properties in Table 2; settings: Table 2 comparison in words
Procedure: Properties of the product were measured and results of the measurements are shown in Table 2, together with those of Example 1 for easy comparison.

SMILES | Flash point [1] [°C] | Solubility (In water) [2] [%] | Solubility (Water in) [2] [%] | Boiling point [3] [°C] | also measured
COCC(C)OC(C)=O (stereo not drawn) [compound 4, Propylene glycol methyl ether acetate] | 47 | 3.0 | 19.0 | 146 | –
CC(O)COC1CCCCC1 (stereo not drawn) [Comparative Example 9, 1-cyclohexyloxy-2-propanol] | 88 | – | – | 208 | Oil solubility characteristics (Drawing oil) [4]: E (Less than 2%); Oil solubility characteristics (Mineral oil) [4]: A (50% or more); Oil solubility characteristics (Press oil) [4]: A (50% or more); Oil solubility characteristics (Rosin oil) [4]: C (10% to less than 20%); dissolving power for oils [5]: poor dissolving power for oils; drying rate [5]: low drying rate; solubility in water [5]: high solubility in water; viscosity [5]: high viscosity; viscosity [6]: 14 cP; solubility in water [2]: 1%; Relative drying rate [7]: 36%
CCCCCCOCCOCCO [diethylene glycol monohexyl ether] | – | – | – | – | viscosity [5]: disadvantageously high viscosity
COCCOCCOC [diethylene glycol dimethyl ether] | – | – | – | – | solubility in water [5]: extremely high solubility in water; toxicity [5]: high toxicity
C=C(C)C1CC=C(C)CC1 (stereo not drawn) [Comparative Example 6, Limonene] | 45 | – | – | – | Flash point ([1]; result in words): low; separability from water [8]: good
COCC(C)OC1CCCCC1 (stereo not drawn) [Example 1, propylene glycol methyl cyclohexyl ether] | 73 | 0.3 | 1.4 | 175 | Oil solubility characteristics (Drawing oil) [4]: A (50% or more); Oil solubility characteristics (Mineral oil) [4]: A (50% or more); Oil solubility characteristics (Press oil) [4]: A (50% or more); Oil solubility characteristics (Rosin oil) [4]: A (50% or more); viscosity [6]: 2.4 cP; solubility in water [2]: 0.3%; Relative drying rate [7]: 77%; results vs Comparative Example 9 (relative drying rate, viscosity, solubility in water, oil solubility) [9]: very superior
CCOCC(C)OC1CCCCC1 (stereo not drawn) [Example 2, propylene glycol ethyl cyclohexyl ether] | 80 | 0.2 | 0.7 | 192 | –
CCCCCCOCCO [Comparative Example 1, Ethylene glycol mono-n-hexyl ether] | 82 | 1.0 | 18.8 | 208 | –
CCCCOCCOCCO [Comparative Example 7, Diethylene glycol monobutyl ether] | 116 | – | – | – | separability from water [8]: poor; solubility in water [5]: disadvantageously high
CCCCOCC(C)O (stereo not drawn) [compound 3, Propylene glycol mono-n-butyl ether] | 59 | 5.6 | 14.9 | 170 | –
COCC(C)OC1CCCCC1O (stereo not drawn) [Example 3, 2-hydroxycyclohexyloxymethoxypropane] | – | 2.7 | 11.7 | – | Boiling point ([3]; Measured at 5 mm/Hg): 93 °C
CCCCOCC(C)OCCCC (stereo not drawn) [compound 5, Propylene glycol di-n-butyl ether] | 69 | 2.0 | 0.6 | 190 | –
CCOCCOCCOCC [Comparative Example 8, Diethylene glycol diethyl ether] | 72 | – | – | – | separability from water [8]: poor; solubility in water [5]: extremely high solubility in water; toxicity [5]: high toxicity
CCCCCCOCCOCCO [Comparative Example 2, Diethylene glycol mono-n-hexyl ether] | 140 | – | – | – | separability from water [8]: good
